Experimental findings from patent US12435087B2, “Modulators of DCN-1 and methods of use thereof” (Cellarity, Inc., priority 2023, dated 2025) are described below.

Where two headings read alike, the source gives them in different places. Where only a bound is given, the exact number is not on record here.

This test has as its target DCN1 (DCUND1) protein PONY domain (Homo sapiens (Human), UniProt Q96GG9). The experiment in a line: TR-FRET assay (binding to DCN-1, displacement of FAM-labeled probe). In a few lines:
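Compounds read at 1, 5 and 24 h, 0.1% final DMSO, by TR-FRET between terbium-streptavidin on biotinylated DCN1 PONY domain (E. coli) and a FAM-tagged non-covalent inhibitor probe. Two setups used, 5 nM protein with 20 nM labelled probe, or 0.31 nM protein with 100 nM labelled plus 800 nM unlabelled probe; buffer had TritonX and 200 mM NaCl. % activity relative to high (with probe) and low (without probe) controls.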

The mark [1] stands for this setting: 24 hr after treatment with compound, read-out: TR FRET IC50 24 hr.
Setting [2] is: TR FRET IC50 1 hr (nM), 1 hr after treatment with compound.
The mark [3] stands for this setting: read-out: TR FRET IC50 1 hr, 1 hr after treatment with compound.

Sequence of DCN1 (DCUND1) protein PONY domain (Q96GG9 60-248): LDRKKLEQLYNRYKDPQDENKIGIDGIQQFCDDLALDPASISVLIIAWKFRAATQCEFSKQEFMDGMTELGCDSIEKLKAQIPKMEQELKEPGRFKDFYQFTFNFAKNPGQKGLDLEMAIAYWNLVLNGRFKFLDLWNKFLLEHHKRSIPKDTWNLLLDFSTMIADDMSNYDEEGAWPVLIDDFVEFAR

In general, IC50 refers to the concentration at which inhibition is half-maximal. For the compound `CCN1C(=O)[C@@H](NC(=O)c2cccc(C(F)(F)F)c2)[C@H](c2cccc(CNC(=O)/C=C(\C)C(=O)OC)c2)c2cnn(-c3ccccc3)c21` [Compound I-73], the 50% inhibitory concentration (IC50) fell in the range of 1000 to 3000 nM under setting [1] and 1000 to 3000 nM under setting [2].
On to `C/C=C(\CN1CC2(COC2)C1)C(=O)NCc1cccc([C@@H]2c3cnn(-c4ccccc4)c3N(CC)C(=O)[C@H]2NC(=O)c2ccn(C(F)(F)F)n2)c1` [Compound I-302], for which the concentration for half-maximal inhibition (IC50) under setting [1] was at most 200 nM and the IC50 under setting [2] is 200 to 1000 nM.
In the case of `CCN1C(=O)[C@@H](NC(=O)c2cccc(C(F)(F)F)c2)[C@H](c2cncc(NC(=O)C3=CCC3)c2)c2cnn(-c3ccccc3)c21` (racemic) [Compound I-36], the half-inhibitory concentration (IC50) runs as follows: under setting [1], 1000 to 3000 nM; under setting [3], 1000 to 3000 nM.
For `CCN1C(=O)[C@H](NC(=O)c2cccc(C(F)(F)F)c2)[C@@H](c2ccccc2N2CC=CC2=O)c2cnn(-c3ccccc3)c21` (racemic) [Compound I-21], the IC50 was over 3000 nM under setting [1] and over 3000 nM under setting [2].
On to `CCN1C(=O)[C@@H](NC(=O)c2cccc(C(F)(F)F)c2)[C@H](c2cccc(CNC/C=C/C(=O)OC(C)(C)C)c2)c2cnn(-c3ccccc3)c21` [Compound I-306, tert-butyl (E)-4-((3-((4R,5S)-7-ethyl-6-oxo-1-phenyl-5-(3-(trifluoromethyl)benzamido)-4,5,6,7-tetrahydro-1H-pyrazolo[3,4-b]pyridin-4-yl)benzyl)amino)but-2-enoate], for which the IC50 runs as follows: under setting [1], 200 to 1000 nM; under setting [2], 1000 to 3000 nM.
For the compound `C/C=C(\CN1CCC(F)(F)C1)C(=O)Nc1cccc([C@@H]2c3cnn(-c4ccccc4)c3N(CC)C(=O)[C@H]2NC(=O)c2nccc(C(F)(F)F)n2)c1` [Compound I-368], the IC50 was at most 200 nM under setting [1] and 1000 to 3000 nM under setting [2].
With `C=C(CN1CCN(C2COC2)CC1)C(=O)NCc1cccc([C@@H]2c3cnn(-c4ccccc4)c3N(CC)C(=O)[C@H]2NC(=O)c2nccc(C(F)(F)F)n2)n1` [Compound I-333], the half-maximal inhibitory concentration (IC50) reads like this: under setting [1], at most 200 nM; under setting [2], 200 to 1000 nM.
As for `CCN1C(=O)[C@@H](NC(=O)c2cccc(C(F)(F)F)c2)[C@H](c2cccc(CNC#N)c2)c2cnn(-c3ccccc3)c21` (racemic) [Compound I-29], the IC50 lay within 1000 to 3000 nM under setting [1] and 1000 to 3000 nM under setting [2].
As to `CCN1C(=O)[C@H](NC(=O)c2cccc(C(F)(F)F)c2)[C@@H](c2cccc(NC(C)=O)c2)c2c(C)nn(-c3ccccc3)c21` (racemic) [Compound I-124], the IC50 is, setting by setting: under setting [1], 1000 to 3000 nM; under setting [2], 1000 to 3000 nM.
Consider `C=C(CN1CCN(C2COC2)CC1)C(=O)NCc1cccc([C@H]2c3cnn(-c4ccccc4)c3N(CC)C(=O)[C@@H]2NC(=O)c2cccc(C(F)(F)F)c2)c1` [Compound I-134], for which the IC50 is 200 to 1000 nM under setting [1] and 1000 to 3000 nM under setting [2].
The corresponding values for `CCN1C(=O)[C@@H](NC(=O)c2cccc(C(F)(F)F)c2)[C@H](c2cccc(CNC(=O)C3=CCN(C)C3)n2)c2cnn(-c3ccccc3)c21` [Compound I-348] are 1000 to 3000 nM and 1000 to 3000 nM.
The like results for `CCN1C(=O)[C@@H](NC(=O)c2cccc(C(F)(F)F)c2)[C@H](c2cccc(CNC(=O)/C=C/CN(C)C)c2)c2cnn(-c3ccccc3)c21` (racemic) [Compound I-53] were, in that order, 1000 to 3000 nM and 1000 to 3000 nM.
With `C=C(CN(C)C1COC1)C(=O)NCc1cccc([C@H]2c3cnn(-c4ccccc4)c3N(CC)C(=O)[C@@H]2NC(=O)c2cccc(C(F)(F)F)c2)c1` [Compound I-154], the IC50 by setting is: under setting [1], 200 to 1000 nM; under setting [2], 1000 to 3000 nM.
The like results for `CCN1C(=O)[C@@H](NC(=O)c2cccc(C(F)(F)F)c2)[C@H](c2cccc(CNC(=O)C3=CCN(C)C3)c2)c2c(C)nn(-c3ccccc3)c21` [Compound I-244] were, in that order, at most 200 nM and 1000 to 3000 nM.
For the compound `C=C(CN1CC2(COC2)C1)C(=O)NCc1cccc([C@@H]2c3c(C)nn(-c4ccccc4)c3N(CC)C(=O)[C@H]2NC(=O)c2cccc(C(F)(F)F)c2)c1` [Compound I-283], the IC50 runs as follows: under setting [1], at most 200 nM; under setting [3], at most 200 nM.
`C/C=C(\CN1CCC1)C(=O)NCc1cccc([C@@H]2c3cnn(-c4ccccc4)c3N(CC)C(=O)[C@H]2NC(=O)c2ccn(C3CC3)n2)c1` [Compound I-309]: the half-maximal inhibitory concentration (IC50) runs as follows: under setting [1], at most 200 nM; under setting [2], at most 200 nM.
Take `C=C(CN1CC2CCC(C1)O2)C(=O)NCc1cccc([C@@H]2c3cnn(-c4ccccc4)c3N(CC)C(=O)[C@H]2NC(=O)c2cccc(C(F)(F)F)c2)c1` [Compound I-136]: the IC50 is at most 200 nM under setting [1] and at most 200 nM under setting [3].
For `C=C(C(=O)NCc1cccc([C@@H]2c3cnn(-c4ccccc4)c3N(CC)C(=O)[C@H]2NC(=O)c2ccn(C(F)(F)F)n2)c1)C(C)N1CCC12COC2` (some centres unmarked) [Compound I-344], the IC50 by setting is: under setting [1], at most 200 nM; under setting [2], 200 to 1000 nM.
Take `C/C=C(\CN1CCN(C2COC2)CC1)C(=O)N(C)Cc1cccc([C@@H]2c3cnn(-c4ccccc4)c3N(CC)C(=O)[C@H]2NC(=O)c2ccn(C(F)(F)F)n2)c1` [Compound I-237, N-((4R,5S)-7-ethyl-4-(3-(((E)-N-methyl-2-((4-(oxetan-3-yl)piperazin-1-yl)methyl)but-2-enamido)methyl)phenyl)-6-oxo-1-phenyl-4,5,6,7-tetrahydro-1H-pyrazolo[3,4-b]pyridin-5-yl)-1-(trifluoromethyl)-1H-pyrazole-3-carboxamide]: the half-maximal inhibitory concentration (IC50) lay within 200 to 1000 nM under setting [1] and 1000 to 3000 nM under setting [2].
The like results for `CCN1C(=O)[C@@H](NC(=O)c2cccc(C(F)(F)F)c2)[C@@H](c2cc(NC(=O)/C=C/CN(C)C)ccc2F)c2cnn(-c3ccccc3)c21` (racemic) [Compound I-107] were, in that order, 1000 to 3000 nM and 1000 to 3000 nM.
As for `C=C(C(=O)N(C)Cc1cccc([C@@H]2c3cnn(-c4ccccc4)c3N(CC)C(=O)[C@H]2NC(=O)c2ccn(C3CC3)n2)c1)C(C)N1CCC12COC2` (some centres unmarked) [Compound I-343], the IC50 is, setting by setting: under setting [1], 200 to 1000 nM; under setting [2], 1000 to 3000 nM.
Consider `CCN1C(=O)[C@@H](NC(=O)c2cccc(C(F)(F)F)c2)[C@@H](c2ccc(F)c(NC(=O)/C=C/CN(C)C)c2)c2cnn(-c3ccccc3)c21` (racemic) [Compound I-129], for which the IC50 by setting is: under setting [1], 1000 to 3000 nM; under setting [2], 1000 to 3000 nM.
With `CCN1C(=O)[C@@H](NC(=O)c2cccc(C(F)(F)F)c2)[C@H](c2cccc(CNC(=O)C(C)Cl)c2)c2cnn(-c3ccccc3)c21` (mixture of isomers) [Compound I-112], the IC50 by setting is: under setting [1], 1000 to 3000 nM; under setting [2], 1000 to 3000 nM.
As to `C=C(CN1CCC1)C(=O)NCc1cccc([C@H]2c3cnn(-c4ccccc4)c3N(CC)C(=O)[C@@H]2NC(=O)c2cccc(C(F)(F)F)c2)c1` [Compound I-59], the IC50 under setting [1] was at most 200 nM and the 50% inhibitory concentration (IC50) under setting [2] was 1000 to 3000 nM.
The like results for `C=C(CC(=O)OC)C(=O)NCc1cccc([C@@H]2c3cnn(-c4ccccc4)c3N(CC)C(=O)[C@H]2NC(=O)c2cccc(C(F)(F)F)c2)c1` [Compound I-50] were, in that order, at most 200 nM and 1000 to 3000 nM.
As to `C/C=C(\CN1CCOCC1)C(=O)NCc1cccc([C@@H]2c3cnn(-c4ccccc4)c3N(CC)C(=O)[C@H]2NC(=O)c2ccn(C3CC3)n2)c1` [Compound I-241], the IC50 by setting is: under setting [1], at most 200 nM; under setting [2], 1000 to 3000 nM.
The corresponding values for `C=C(CN1CCOCC1)C(=O)NCc1cccc([C@@H]2c3cnn(-c4ccccc4)c3N(CC)C(=O)[C@H]2NC(=O)c2ccn(CC#N)n2)c1` [Compound I-340, 1-(cyanomethyl)-N-((4R,5S)-7-ethyl-4-(3-((2-(morpholinomethyl)acrylamido)methyl)phenyl)-6-oxo-1-phenyl-4,5,6,7-tetrahydro-1H-pyrazolo[3,4-b]pyridin-5-yl)-1H-pyrazole-3-carboxamide] are 200 to 1000 nM and 1000 to 3000 nM.
The corresponding values for `CCN1C(=O)[C@@H](NC(=O)c2nccc(C(F)(F)F)n2)[C@H](c2cccc(C(=O)N3C[C@@H](F)C[C@H]3C#N)c2)c2cnn(-c3ccccc3)c21` [Compound I-330] are 1000 to 3000 nM and 1000 to 3000 nM.
The corresponding values for `C=C(CN1CCN(C2COC2)CC1)C(=O)N[C@@H](C)c1cccc([C@@H]2c3cnn(-c4ccccc4)c3N(CC)C(=O)[C@H]2NC(=O)c2nccc(C(F)(F)F)n2)c1` (mixture of isomers) [Compound I-380] are 1000 to 3000 nM and 1000 to 3000 nM.
Consider `C=C(CN1CCN(C2COC2)CC1)C(=O)NCc1cccc([C@@H]2c3cnn(-c4ccccc4)c3N(CC)C(=O)[C@H]2NC(=O)c2ccn(C(F)(F)F)n2)c1` [Compound I-356], for which the IC50 is, setting by setting: under setting [1], at most 200 nM; under setting [3], at most 200 nM.
`C=C(CN(C)C1COC1)C(=O)N(C)Cc1cccc([C@@H]2c3cnn(-c4ccccc4)c3N(CC)C(=O)[C@H]2NC(=O)c2csc(C(F)(F)F)n2)c1` [Compound I-318]: the IC50 by setting is: under setting [1], at most 200 nM; under setting [2], 200 to 1000 nM.
For the compound `CCN1C(=O)[C@@H](NC(=O)c2cccc(C(F)(F)F)c2)[C@H](c2ccccc2CNC(=O)C2=CCC2)c2cnn(-c3ccccc3)c21` (racemic) [Compound I-101], the 50% inhibitory concentration (IC50) under setting [1] lay within 1000 to 3000 nM and the IC50 under setting [2] was 1000 to 3000 nM.
Turning to `C=C(CC(=O)NCc1cccc([C@@H]2c3cnn(-c4ccccc4)c3N(CC)C(=O)[C@H]2NC(=O)c2cccc(C(F)(F)F)c2)c1)C(=O)OC` [Compound I-57], the IC50 lay in the range of 1000 to 3000 nM under setting [1] and 1000 to 3000 nM under setting [2].
With `C/C=C(/CN1CCN(C2COC2)CC1)C(=O)N(C)c1cccc([C@@H]2c3cnn(-c4ccccc4)c3N(CC)C(=O)[C@H]2NC(=O)c2csc(C(F)(F)F)n2)c1` [Compound I-369], the IC50 by setting is: under setting [1], 1000 to 3000 nM; under setting [2], 1000 to 3000 nM.
